The source made the active and inactive calls. The calls are words filed in the database; no cut-off is given here.
Legend:
[1] = system: Japanese encephalitis virus; test: Antiviral activity against Japanese encephalitis virus SA14-2-8 infected in african green monkey Vero cells assessed as reduction of virus yield relative to control; type: functional, organism-based
[2] = Cytotoxicity against african green monkey Vero cells after 48 hrs by MTS method; type: cell-based; conditions: chlorocebus sabaeus
West Nile virus [3] = test: Antiviral activity against West Nile virus NY 1999 infected in african green monkey Vero cells assessed as reduction of virus yield relative to control; type: functional, organism-based
West Nile virus [4] = test: Antiviral activity against West Nile virus NY 1999 infected in african green monkey Vero cells assessed as reduction of virus yield after 5 days post infection at 23 uM relative to control; type: functional
West Nile virus [5] = test: Antiviral activity against West Nile virus NY 1999 infected in african green monkey Vero cells assessed as reduction of viral E protein level by immunoblot method; type: functional, organism-based
West Nile virus [6] = test: Antiviral activity against West Nile virus in BHK cells assessed as reduction of viral replicon after 48 hrs by luciferase based reporter gene assay relative to control; type: functional
[7] = system: Human immunodeficiency virus 1; test: Antiviral activity against HIV1 in 293 cells assessed as reduction of viral replicon after 48 hrs by luciferase based reporter gene assay relative to control; type: functional, organism-based; conditions: HEK293
West Nile virus [8] = test: Antiviral activity against West Nile virus NY 1999 infected in african green monkey Vero cells assessed as reduction of virus yield administered 2 hrs postinfection; type: functional, organism-based
West Nile virus [9] = test: Antiviral activity against West Nile virus NY 1999 infected in african green monkey Vero cells assessed as reduction of viral RNA level by RT-PCR relative to control; type: functional
[10] = Selectivity index, ratio of CC50 for african green monkey Vero cells to EC50 for West Nile virus NY 1999; type: toxicity, cell-based; conditions: read-out: Ratio CC50/EC50
West Nile virus [11] = test: Antiviral activity against West Nile virus NY 1999 infected in african green monkey Vero cells assessed as reduction of virus yield after 5 days post infection at 2.3 uM relative to control; type: functional
Vero = test: Cytotoxicity against african green monkey Vero cells at 23 uM after 48 hrs by MTS method; type: cell-based; conditions: chlorocebus sabaeus
Prospect Hill virus = test: Antiviral activity against Prospect Hill Hantavirus; type: functional, organism-based; conditions: Orthohantavirus prospectense
West Nile virus [12] = test: Antiviral activity against West Nile virus NY 1999 infected in african green monkey Vero cells assessed as reduction of viral E protein level by immunofluorescence method; type: functional, organism-based
Human adenovirus 5 = test: Antiviral activity against human adenovirus 5; type: functional, organism-based
[13] = system: Human immunodeficiency virus 1; test: Antiviral activity against HIV1; type: functional, organism-based
[14] = Cytotoxicity against african green monkey Vero cells by trypan blue exclusion assay; type: cell-based; conditions: chlorocebus sabaeus

Structure (SMILES) | EC50 [1] | CC50 at 48 h [2] | EC50 (West Nile virus [3]) | fold change (FC) (West Nile virus [4]) | Activity (West Nile virus [5]) | fold change (FC) (West Nile virus [6]) | Activity [7] | Activity (West Nile virus [8]) | Activity (West Nile virus [9]) | selectivity ratio [10] | fold change (FC) (West Nile virus [11]) | Activity (Vero) | Activity (Prospect Hill virus) | Activity (West Nile virus [12]) | Activity (Human adenovirus 5) | Activity [13] | CC50 [14]
CC(C)N(C(=S)/N=C1\SCS(=O)(=O)N1c1ccccc1)C(C)C | 8 µM | > 80 µM | 80 µM |  |  |  |  |  |  |  |  |  |  |  |  |  | 
O=S1(=O)CS/C(=N\C(=S)N(Cc2ccccc2)Cc2ccccc2)N1c1ccccc1 | 65 µM | 65 µM | 22 µM |  |  |  |  |  |  |  |  |  |  |  |  |  | 
CC(C)N(C(=S)/N=C1\SC(C)S(=O)(=O)N1C)C(C)C (stereo unspecified) | 30 µM | 90 µM | 30 µM |  |  |  |  |  |  |  |  |  |  |  |  |  | 
O=S1(=O)CS/C(=N\C(=S)N(c2ccccc2)c2ccccc2)N1c1ccccc1 | 7 µM | > 70 µM | 0.7 µM | 100 | Active | >20 | inactive | Active | >100 | > 100 | 100 | Non-toxic | Active | Active | Active | Active | > 70 µM

From ChEMBL document CHEMBL1150795, “Sultam thiourea inhibition of West Nile virus” (Antimicrob Agents Chemother, 2007)
